Measurements as given in US10617772B2, “Hsp9O-targeted inflammation and infection imaging and therapy” (Memorial Sloan Kettering Cancer Center, priority 2014, dated 2020).

Assays:
[1] = system: inflammatory pulmonary infiltrate; assay: I-124 PUH71 PET-CT, microdose study in patients (FIGS. 1-2); assay type: in vivo, human; settings: person with ovarian cancer; PET-CT 24 hours after intravenous injection of 9.3 mCi
Experimental: (§1) Positron emission tomography (PET) combined with X-ray computed tomography (CT) was performed using a state of the art integrated PET-CT scanner (Discovery DSTE™ General Electric). CT scans for attenuation correction and anatomic coregistration were performed prior to tracer-injection, using the following acquisition parameters: 140 kVp; 85 mA; pitch of 1.75:1; reconstructed slice thickness of 3.75 mm; 0.8 s per rotation. The CT protocol was designed for anatomic localization of tracer-signal and for attenuation correction, while minimizing radiation exposure. Each patient received ˜185 megabecquerel (MBq) [^124I]-PU-H71 by peripheral vein over two minutes. PET emission scans were acquired in two-dimensional mode starting at the mid-thighs moving toward the head, for 7.5 minutes per PET bed position. PET data were reconstructed using a standard ordered subset expected maximization iterative algorithm. Emission data were corrected for scatter, attenuation and decay. Clinical FDG PET-CT studies were performed according to standard methods using state of the art PET-CT scanners. [^124I]-PU-H71 scans were performed at 3-4 hrs, 20-24 hrs, 48-72 hours and, optionally, ˜168 hrs after tracer administration on the microdose [^124I]-PU-H71 PET-CT study.

[2] = system: inflammatory pulmonary consolidation; assay: I-124 PUH71 PET-CT, tracer mixed with a therapeutic dose of non-radioactive PUH71 (FIGS. 3-4); assay type: in vivo, human
Experimental: as §1
PU-PET images were taken 1.5, 4, 24 and 48-72 hrs after co-administration on the tracer mixed with a therapeutic dose of non-radioactive PUH71 in a total volume of […], co-infused intravenously over one hour. Patient were treated with PU-H71 at escalating dose levels determined by a modified continuous reassessment model. Each patient is treated with his or her assigned dose on day 1, 4, 8 and 11 of each 21 day cycle. Pre- and post-treatment biopsies were collected for correlative studies including LCMSMS quantification of PU-H71, with the latter obtained within 24 hours of their cycle 1, day 1 dose of PU-H71.

[3] = person with breast cancer, 6.5 mCi mixed with 35 mg non-radioactive PUH71, PET

Row | SMILES | accumulation of tracer in inflammatory pulmonary infiltrate (apex of left lung) [1] | clearance of tracer from blood stream (void of activity within the cardiac atrium) [2, 3] | tracer retention in left ventricle myocardium [2, 3] | accumulation and retention of tracer in inflammatory pulmonary consolidation (right lung) ([2]; person with breast cancer, 6.5 mCi mixed with 35 mg non-radioactive PUH71, immediately, 4 hours and 24 hours post-injection) | uptake relative to surrounding healthy tissues ([2]; diseased tissue, patients, PET) | blood clearance ([2]; patients, PET) | retention in the diseased tissue ([2]; patients, PET) | outcome of pulmonary consolidation on CT scan ([2]; two weeks after imaging, PUH71 35 mg twice a week for two weeks per three week cycle, together with antibiotic treatment and pleural fluid drainage)
1 | CC(C)NCCCn1c(Sc2cc3c(cc2[124I])OCO3)nc2c(N)ncnc21 [I-124 PUH71] | distinct accumulation | cleared from blood stream | distinct tracer retention | distinct accumulation and sustained retention | – | – | – | –
2 | CC(C)NCCCn1c(Sc2cc3c(cc2I)OCO3)nc2c(N)ncnc21 [PUH71] | – | – | – | – | high uptake | rapid blood clearance | sustained retention | pulmonary consolidation had resolved
